As a reminder, the IC50 is the midpoint of a concentration-inhibition curve.

Consider 2 compounds from article PMC6728334 (Scientific Reports, 2019).

SMILES strings stand for the structures. “Also recorded” adds a separate entry of the source. Read-outs that look alike come from different tables or passages of the source.

Assay [1] deals with HEK 293FT cells. The experiment in a line: Cellular global ubiquitination with MG132, anti-ubiquitin Western blot. Type of assay: cell-based, human. The settings on record: EGCG 250 and 500 μM, 1 h total; MG132 50 μM for 30 min. As to the method:
HEK 293FT cells were plated in 6-well plates at 8 × 10^5 cells/well in DMEM with 0.5% FBS. […] Cells were harvested, and whole-cell lysates were prepared in RIPA lysis buffer containing protease inhibitor cocktail ([…] from Sigma-Aldrich) and sonicated. Equivalent loadings of total protein for each treatment, as determined by Bradford assay of each extract sample, were subjected to electrophoresis on 8% SDS-polyacrylamide gels and Western blot analysis, probed with anti-ubiquitin antibody, then stripped and reprobed with anti-β-tubulin antibody.
A general note: In western blotting, separated proteins are transferred to a membrane and probed.

The target of assay [2] is T1, Uba1 (Homo sapiens, UniProt P22314).
T1 construct: His; host or cells: E. coli BL21(DE3)
T1 sequence (P22314 1-1058): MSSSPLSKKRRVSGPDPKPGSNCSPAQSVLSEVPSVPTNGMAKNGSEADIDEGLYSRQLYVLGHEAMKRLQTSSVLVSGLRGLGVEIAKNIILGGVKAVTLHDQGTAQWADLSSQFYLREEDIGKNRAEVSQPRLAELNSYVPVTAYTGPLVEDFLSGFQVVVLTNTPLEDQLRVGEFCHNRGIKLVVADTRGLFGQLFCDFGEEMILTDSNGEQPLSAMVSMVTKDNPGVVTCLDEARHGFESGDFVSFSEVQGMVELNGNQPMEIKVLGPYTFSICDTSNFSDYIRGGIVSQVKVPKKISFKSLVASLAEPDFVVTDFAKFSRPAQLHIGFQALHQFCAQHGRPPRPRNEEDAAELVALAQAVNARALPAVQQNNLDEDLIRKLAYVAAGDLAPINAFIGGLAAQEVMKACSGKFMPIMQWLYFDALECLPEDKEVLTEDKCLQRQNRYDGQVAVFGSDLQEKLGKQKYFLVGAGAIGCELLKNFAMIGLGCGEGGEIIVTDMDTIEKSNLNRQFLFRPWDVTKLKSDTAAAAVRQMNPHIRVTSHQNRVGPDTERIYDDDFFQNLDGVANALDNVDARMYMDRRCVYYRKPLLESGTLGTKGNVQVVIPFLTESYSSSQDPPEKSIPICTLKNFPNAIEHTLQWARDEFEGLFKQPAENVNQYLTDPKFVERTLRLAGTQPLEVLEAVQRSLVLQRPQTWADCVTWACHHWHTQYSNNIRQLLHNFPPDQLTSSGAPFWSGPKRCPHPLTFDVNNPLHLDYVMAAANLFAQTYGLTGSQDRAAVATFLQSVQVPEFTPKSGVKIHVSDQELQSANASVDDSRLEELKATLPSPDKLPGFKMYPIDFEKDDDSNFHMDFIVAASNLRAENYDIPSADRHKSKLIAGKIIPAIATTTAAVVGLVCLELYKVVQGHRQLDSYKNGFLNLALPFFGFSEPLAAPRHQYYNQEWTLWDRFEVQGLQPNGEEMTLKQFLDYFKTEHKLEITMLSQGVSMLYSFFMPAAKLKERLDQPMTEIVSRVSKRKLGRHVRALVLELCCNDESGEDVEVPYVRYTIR
The experiment in a line: Reversibility: Uba1 preincubation, washout by centrifugal filtration, then PCNA ubiquitination. Conditions: 30 μM compound preincubated with Uba1 for 2 h, then washed out. Type of assay: biochemical. As to the method: Samples were then transferred to YM-30 Microcon centrifugal concentrators (Merck Millipore), diluted in buffer (40 mM Tris-HCl, pH 7.5, 8 mM MgCl2, and 10% glycerol), then serially centrifuged with additions of buffer to the remaining retentate between each spin, for final dilutions of compounds to <0.05% of original concentrations. The resulting samples were then tested in PCNA ubiquitination reactions.

Assay [3] concerns Uba1-overexpressing HEK 293 cells. As to the kind of experiment: Cell survival in Uba1-overexpressing cells vs empty vector-transfected control cells. Type of assay: cell-based, human. Conditions: 24-h treatment at IC50 of each compound (Myr 3 mM, DM 650 μM; puromycin 1 and 2 μM). As for the experimental part: (§1) HEK 293FT cells were evaluated for survival following compound treatments by the Alamar Blue (resazurin) assay. Cells were plated onto 96-well plates at 4.8 × 10^4 cells/well in 0.5% FBS-containing DMEM at 37 °C and 5% CO2. After 24 h, compounds were added. After 24-h treatment, resazurin was added to a final concentration of 0.12 mM. Following 4-h incubation, conversion to the resorufin product was measured (with excitation at 542 nm and emission at 590 nm) on a fluorescence plate reader.
(§2) HEK 293FT cells (1.5 × 10^6) were plated onto 6-cm plates in 5 ml of DMEM with 10% FBS and allowed to grow for 24 h at 37 °C and 5% CO2. For transfections, 6 μg of plasmid DNA (empty vector containing FLAG-tag sequence only, FLAG-Uba1, or FLAG-ubiquitin) and 10 μl of Lipofectamine 2000 were used for each plate. The DNA and the reagent were diluted separately in 500 μl of Opti-MEM (Gibco), and each was mixed by vortexing. After 5-min incubation, the two tubes were combined and incubated for another 20 min. Prior to adding the transfection solution to the cells, the medium was replaced with 4 ml of Opti-MEM. The transfection solution was then added dropwise. After 3-h incubation, the medium was changed to 0.5% FBS-containing DMEM, and the cells were plated for cell survival experiments, as above.

For assay [4], the system named is PCNA ubiquitination (RFC, Uba1, Rad6, Rad18, PCNA, ubiquitin). As to the kind of experiment: Reconstituted PCNA ubiquitination cascade, Western blot quantitation. Conditions: for IC50: 15 min preincubation, 2 h with ATP, 2% DMSO, nonlinear regression, read-out: IC50 for inhibition of PCNA ubiquitination; for Activity in the PCNA ubiquitination assay (in words): up to 500 μM. The assay is classed as biochemical, human. As to the method: The PCNA loading and ubiquitination cascade was reconstituted in 96-well white round-bottom polypropylene plates (Greiner) in a buffer consisting of 40 mM Tris-HCl, pH 7.5, 8 mM MgCl2, and 10% glycerol with 2.5 nM nicked circular pUC19, 50 nM RFC, 50 nM Uba1, 250 nM Rad6–Rad18 dimer, 50 nM FLAG-PCNA, and 250 nM biotin-ubiquitin (final concentrations). Compounds were added to the samples, with preincubation for 15 min at 25 °C before addition of ATP to a final concentration of 2 mM (to initiate the reaction cascade), followed by incubation for 2 h at 25 °C. The reactions were then terminated by addition of EDTA to 20 mM for Alpha assays or Laemmli sample buffer for Western blot analyses. For Alpha assays, reaction mixtures were diluted in buffer containing streptavidin-conjugated donor beads and anti-FLAG antibody-conjugated acceptor beads in opaque white microplates under low-light conditions, as recommended by the Alpha bead manufacturer, PerkinElmer. The plates were read on a Tecan Spark microplate reader at 23 °C. For Western blot analyses, FLAG-PCNA was detected with anti-FLAG antibody, and quantitations from the Western blot images was performed with NIH ImageJ software[74] and then analyzed with GraphPad Prism software.

The subject of assay [5] is ubiquitin-overexpressing HEK 293 cells. The experiment in a line: Cell survival in ubiquitin-overexpressing cells vs empty vector-transfected control cells. Conditions: 24-h treatment at IC50 of each compound (Myr 3 mM, DM 650 μM; puromycin 1 and 2 μM). The assay is classed as cell-based, human. As to the method: as §1, §2
The target of a further assay is T2, Rad6 (Homo sapiens, UniProt P63146).
T2 construct: FLAG; made in house
The experiment in a line: Rad6~ubiquitin thioester formation by transfer from already formed Uba1~ubiquitin. Type of assay: biochemical. The settings on record: Rad6 preincubated with compound 15 min; 2% DMSO. As for the experimental part: The overall reaction was conducted in two separate steps: initial reaction of Uba1 with ubiquitin in the absence of compound, then mixing with Rad6 with compound to evaluate transfer of ubiquitin from already formed Uba1~ubiquitin to Rad6. The first reaction was conducted with 300 nM Uba1, 1 μM GST-ubiquitin, and 2 mM ATP in a buffer of 40 mM Tris-HCl, pH 7.5, 8 mM MgCl2, and 10% glycerol for 30 min at 25 °C to allow for charging of Uba1 with GST-ubiquitin incubations. […] The samples were then subjected to SDS-polyacrylamide gel electrophoresis under non-reducing conditions, silver staining, and quantitation of scanned images, as described above for the silver-staining-based Uba1~ubiquitin thioester formation assay.

Assay [6] relates to HEK 293FT cells. The experiment in a line: Cell survival, Alamar Blue (resazurin) assay. Type of assay: cell-based, human. The settings on record: for Activity on cell viability / survival (in words) / IC50: 24-h treatment; for IC50: 2% DMSO, read-out: IC50 for inhibition of cell survival. As for the experimental part:
For cellular experiments, HEK 293FT cells (a fast-growing SV40 large T antigen-transformed strain of HEK 293 cells designed for enhanced transgene expression in transient transfections) were grown in growth medium consisting of Dulbecco’s modified Eagle’s medium (DMEM; Sigma-Aldrich), supplemented with 10% fetal bovine serum (FBS; Gibco) in a humified cell culture incubator at 37 °C with 5% CO2.
as §1

The target of assay [7] is T1, Uba1. The experiment in a line: Uba1~ubiquitin thioester formation (Uba1, GST-ubiquitin, ATP; silver-stained gels). The assay is classed as biochemical. Conditions: for Activity in the Uba1~ubiquitin thioester formation assay (in words): up to 500 μM.

T2 sequence (P63146 whole entry): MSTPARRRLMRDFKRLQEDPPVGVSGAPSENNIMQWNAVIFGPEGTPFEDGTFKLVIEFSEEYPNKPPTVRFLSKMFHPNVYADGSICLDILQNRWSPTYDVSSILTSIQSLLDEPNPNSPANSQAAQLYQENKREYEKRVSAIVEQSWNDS

Consider `O=C(O[C@@H]1Cc2c(O)cc(O)cc2O[C@@H]1c1cc(O)c(O)c(O)c1)c1cc(O)c(O)c(O)c1` [EGCG, (–)-Epigallocatechin-3-gallate], for which the “Accumulation of ubiquitin-conjugated protein species in response to MG132 (global cellular ubiquitination)” value with HEK 293FT cells [1] is listed as “inhibited”. The “Reversibility of inhibition of Uba1 and PCNA ubiquitination after washout” value at Uba1 [2] was “reversible”. Moreover, the “Effect of Uba1 overexpression on cell survival” value in assay [3] is listed as “reduced sensitivity; also recorded: Protects”. Moreover, in assay [4], the half-inhibitory concentration (IC50) worked out at 0.228 µM and the “Activity in the PCNA ubiquitination assay (in words)” value is reported as “inhibitory”. In addition, the “Effect of ubiquitin overexpression on cell survival” value in assay [5] is “reduced sensitivity; also recorded: Protects”. At Rad6, the “Formation of the Rad6~ubiquitin thioester conjugate” value is “does not inhibit”. Besides, in the assay on HEK 293FT cells [6], the “Activity on cell viability / survival (in words)” value was “reduces the viability and growth; also recorded: inhibitory”; the IC50 amounted to 220 µM. Also, the IC50 in the assay with HEK 293FT cells [6] (Homo sapiens, HEK293FT, 24 h) was found to be 220 µM. Further, at Uba1 [7] (EGCG 10 μM, Myr 50 μM), the “Uba1~ubiquitin thioester formation, Uba1 alone preincubated with compound before ubiquitin and ATP” value is given as “complete inhibition”; the “Uba1~ubiquitin thioester formation, ubiquitin alone preincubated with compound before Uba1 and ATP” value is “did not”. In addition, the “Activity in the Uba1~ubiquitin thioester formation assay (in words)” value at Uba1 [7] is given as “inhibitory”.

On to `O=c1c(O)c(-c2cc(O)c(O)c(O)c2)oc2cc(O)cc(O)c12` [Myr, Myricetin], for which the “Reversibility of inhibition of Uba1 and PCNA ubiquitination after washout” value at Uba1 [2] is reported as “reversible”. In addition, in assay [3], the “Effect of Uba1 overexpression on cell survival” value was “Protects”. Also, the IC50 was 1.21 µM in assay [4]; > 500 µM in the assay with HEK 293FT cells [6] (Homo sapiens, HEK293FT, 24 h); 0.721 µM at Uba1 [7] (Fig. 6, read-out: IC50 (Uba1~Ub)); 0.721 µM on Uba1 [7] (Uba1 preincubated with compound 15 min, 2 h reaction, 2% DMSO, read-out: IC50 for inhibition of Uba1~ubiquitin thioester formation). The “Activity in the PCNA ubiquitination assay (in words)” value in assay [4] is on record as “active”. Besides, in assay [5], the “Effect of ubiquitin overexpression on cell survival” value is “Protects”. In the assay with HEK 293FT cells [6] (500 μM, 24 h), the “Activity in the cell viability experiments at 500 μM” value is “only very weak activity”. Besides, the “Activity on cell viability / survival (in words)” value with HEK 293FT cells [6] is recorded as “very weak activity”. In addition, the “Uba1~ubiquitin thioester formation, ubiquitin alone preincubated with compound before Uba1 and ATP” value on Uba1 [7] (EGCG 10 μM, Myr 50 μM) was “resulted in inhibition”. Further, the “Activity in the Uba1~ubiquitin thioester formation assay (in words)” value at Uba1 [7] is “active”.
